Assay results: the NIST ThermoML archive (doi:10.1021/acs.jced.8b00132)
Where “and” joins values, the source holds several entries; their conditions need not be identical. Identical values can stand only once.

Details: Liquid, transient hot wire

O=C(C(F)(F)C(F)(F)F)C(F)(C(F)(F)F)C(F)(F)F [dodecafluoro-2-methylpentan-3-one]
Details	thermal conductivity
191.65 K, 61123 kPa	0.08784 W/m/K
191.65 K, 67633 kPa	0.08918 W/m/K
191.65 K, 67642 kPa	0.08859 W/m/K
191.66 K, 154 kPa	0.07783 W/m/K
191.66 K, 6412 kPa	0.07892 W/m/K
191.66 K, 6427 kPa	0.07902 W/m/K
191.66 K, 13243 kPa	0.0804 W/m/K
191.66 K, 13255 kPa	0.08025 W/m/K
191.66 K, 20239 kPa	0.08175 W/m/K
191.66 K, 20246 kPa	0.08164 W/m/K
191.67 K, 112 kPa	0.07744 W/m/K
191.67 K, 147 kPa	0.07786 W/m/K
191.67 K, 6032 kPa	0.07883 W/m/K
191.67 K, 9411 kPa	0.07946 W/m/K
191.67 K, 9418 kPa	0.07986 W/m/K
191.68 K, 121 kPa	0.07734 W/m/K
191.68 K, 6013 kPa	0.07908 W/m/K
192 K, 28272 kPa	0.08275 W/m/K
192 K, 36150 kPa	0.084 W/m/K
192 K, 36164 kPa	0.08417 W/m/K
192 K, 44217 kPa	0.08526 W/m/K
192 K, 52622 kPa	0.08646 W/m/K
192 K, 52639 kPa	0.08637 W/m/K
192 K, 61093 kPa	0.08779 W/m/K
192 K, 67605 kPa	0.08855 W/m/K
192.01 K, 28268 kPa	0.08282 W/m/K
192.01 K, 44219 kPa	0.08526 W/m/K
192.01 K, 61086 kPa	0.08772 W/m/K
192.01 K, 67622 kPa	0.08858 W/m/K
192.04 K, 6436 kPa	0.07895 W/m/K
192.04 K, 13246 kPa	0.08024 W/m/K
192.04 K, 13262 kPa	0.08043 W/m/K
192.04 K, 20234 kPa	0.08155 W/m/K
192.05 K, 6439 kPa	0.07899 W/m/K
192.05 K, 20236 kPa	0.0816 W/m/K
192.06 K, 157 kPa	0.07749 W/m/K
192.06 K, 162 kPa	0.07742 W/m/K
192.06 K, 9415 kPa	0.07961 W/m/K
192.06 K, 9425 kPa	0.07956 W/m/K
192.07 K, 124 kPa	0.07716 W/m/K
192.07 K, 6029 kPa	0.07889 W/m/K
192.07 K, 6037 kPa	0.07899 W/m/K
192.08 K, 123 kPa	0.07723 W/m/K
192.39 K, 61059 kPa	0.08761 W/m/K
192.39 K, 67589 kPa	0.08872 W/m/K
192.4 K, 44218 kPa	0.08528 W/m/K
192.4 K, 52626 kPa	0.08558 W/m/K
192.4 K, 61080 kPa	0.08772 W/m/K
192.4 K, 67603 kPa	0.08923 W/m/K
192.41 K, 28286 kPa	0.08272 W/m/K
192.41 K, 36171 kPa	0.08404 W/m/K
192.41 K, 44213 kPa	0.08463 W/m/K
192.41 K, 52617 kPa	0.08563 W/m/K
192.42 K, 28275 kPa	0.08201 W/m/K
192.42 K, 36146 kPa	0.08395 W/m/K
192.45 K, 20243 kPa	0.08132 W/m/K
192.46 K, 20239 kPa	0.08136 W/m/K
192.47 K, 13253 kPa	0.08039 W/m/K
192.47 K, 13262 kPa	0.08013 W/m/K
192.48 K, 6426 kPa	0.07848 W/m/K
192.48 K, 6434 kPa	0.07874 W/m/K
192.49 K, 9414 kPa	0.0792 W/m/K
192.5 K, 157 kPa	0.07741 W/m/K
192.5 K, 161 kPa	0.07715 W/m/K
192.5 K, 6046 kPa	0.07875 W/m/K and 0.07884 W/m/K
192.5 K, 9410 kPa	0.07887 W/m/K
192.51 K, 147 kPa	0.0771 W/m/K
192.52 K, 131 kPa	0.07714 W/m/K
192.82 K, 67573 kPa	0.08822 W/m/K
192.82 K, 67584 kPa	0.08836 W/m/K
192.83 K, 52603 kPa	0.08551 W/m/K
192.83 K, 61059 kPa	0.08671 W/m/K
192.83 K, 61067 kPa	0.08703 W/m/K
192.84 K, 44211 kPa	0.08516 W/m/K
192.84 K, 52611 kPa	0.08588 W/m/K
192.85 K, 44221 kPa	0.08537 W/m/K
192.86 K, 36164 kPa	0.08389 W/m/K and 0.08381 W/m/K
192.87 K, 28295 kPa	0.08266 W/m/K
192.87 K, 28317 kPa	0.08252 W/m/K
192.92 K, 20232 kPa	0.08125 W/m/K
192.92 K, 20252 kPa	0.08125 W/m/K
192.94 K, 13254 kPa	0.08003 W/m/K
192.96 K, 6419 kPa	0.07805 W/m/K
192.96 K, 6437 kPa	0.07805 W/m/K
